Data on 2 molecules can be found in patent US11318138B2, “Methods for treating B cell proliferative disorders” (priority 2013, dated 2022).

Test [1] relates to PIK3IP1 mRNA in JEKO-1 cells. Briefly: q-RT-PCR analysis of PIK3IP1 mRNA expression in MCL cells. The following applies: JEKO-1, PD (30 h) alone or Ibrutinib (24 h) alone. The format is cell-based.
In test [2] the test system is PIK3IP1 mRNA in MAVER-1 cells. Described as above. The test is classed as cell-based. The following applies: MAVER-1, PD (30 h) alone or Ibrutinib (24 h) alone.
For a further test, the system named is recurrent MCL patients. To be noted: cited from earlier work.
The test system of a further test is JEKO-1 cells. In words: MCL cell line culture with Ibrutinib and/or PD 0332991: viability, cell cycle, apoptosis, live cells. To be noted: JEKO-1, Ibrutinib 72 h, Trypan blue exclusion and ToPro-3 FACS. The format is cell-based.
The subject of the next test is MAVER-1 cells. Described as above. The test is classed as cell-based. The following applies: MAVER-1, Ibrutinib 72 h, Trypan blue exclusion and ToPro-3 FACS.
The test system of a further test is MINO cells. The description is as above. The test is classed as cell-based.
In a further test the test system is SP53 cells. To be noted: SP53, Ibrutinib 72 h, at the G1-S transition.
For the next test, the system named is MCL patient (Pt 7). The following applies: Pt 7, Ibrutinib 560 mg daily.
The subject of test [3] is chicken lymphoma DL40 cell line. To be noted: model chicken lymphoma DL40 cell line; cited from earlier work.
In test [4] the test system is CCL3, CCL4, TNF and IL10 expression in MCL cells. To be noted: MCL cells ex vivo; cited from earlier work.

In the case of `CC(=O)c1c(C)c2cnc(Nc3ccc(N4CCNCC4)cn3)nc2n(C2CCCC2)c1=O` [PD 0332991], the “PIK3IP1 mRNA induction, single agent” value in test [1] is recorded as “modestly induced”. Besides, in [2], the “PIK3IP1 mRNA induction, single agent” value is “modestly induced”. In addition, in the test with recurrent MCL patients, the “cell cycle effect in patients” value was “prolonged early G1 arrest” and the clinical response entry was “durable clinical response”.

As to `C=CC(=O)N1CCC[C@@H](n2nc(-c3ccc(Oc4ccccc4)cc3)c3c(N)ncnc32)C1` [Ibrutinib, (R)-1-(3-(4-amino-3-(4-phenoxyphenyl)-1H-pyrazolo[3,4-d]pyrimidin-1-yl)piperidin-1-yl)prop-2-en-1-one], the “sensitivity of cells to ibrutinib (viability, DNA fragmentation)” value with JEKO-1 cells and in the test on MAVER-1 cells was “completely refractory” in each case. Further, in the test on MINO cells (Ibrutinib 72 h), the toxicity to cells entry is listed as “not toxic”. For the same molecule, the “S phase entry (BrdU pulsing/PI analysis)” value with MINO cells (Ibrutinib 72 h (1 μM)) is listed as “moderately inhibiting”. Moreover, the “PIK3IP1 mRNA induction, single agent” value in test [1] and in test [2] was “modestly induced” throughout. Moreover, the “apoptosis (accumulation of sub 2N cells, reduction of S phase cells)” value in the test with SP53 cells is reported as “potently induced apoptosis”. In addition, in the test with MCL patient (Pt 7), the “duration of response before progression” value is recorded as 14 months. Besides, the “effect of C481S BTK mutation on ibrutinib sensitivity” value in test [3] is reported as “conferred resistance”. For the same molecule, the “expression of CCL3, CCL4, TNF and IL10” value in test [4] is given as “suppress”.
